Source: patent publication US12721815B2, “Freeze-dried exosome composition and uses thereof” (AVECIN-Biopharma Oy, priority 2022, dated 2026)

Columns and labels:
[1] = Lyophilization of exosomes with different cryoprotectants of Table 1 (BCA kit, TEM, NTA); assay type: physicochemical; conditions: FIG. 4
Method: The protein concentration of isolated exosomes is measured by BCA protein assay kit. Isolated exosomes were characterized by fluorescent staining, Transmission electron microscopy (TEM), and Nanoparticle Tracking Analysis (NTA).
Different cryoprotectant components namely trehalose, mannitol, sorbitol, sucrose, glucose and HA (both low Mw (LW) and high Mw (HMW)), either alone or in combination with HA or glycine (see Table 1) were tested for exosome viability outcome after lyophilization. PBS (290 mOsm/kg) was used as the solvent. The LMW HA used for the examples described herein is LMW HA having a Mw lower than 10 kDa. Isolated exosomes (1 mg/ml) were dissolved in PBS solution and then mixed with cryoprotectant solution in the ratio of 1 part exosomes to 1, 3, 5, or 10 parts of cryoprotectant.
Cryoprotectant solutions were prepared using phosphate-buffered saline (PBS) while the overall osmolality of the lyophilization solutions was maintained at 290 mOsm/kg. Isolated exosomes (10^10-10^11 particle/ml) were suspended in cryoprotectant solution ranging from 1 part of exosome suspension with 3 parts of cryoprotectant solution, to, 3 parts of exosome suspension with 1 part of cryoprotectant solution. Exosomes were lyophilized and then morphology of retrieved exosomes was visualized by TEM while size and concentration were measured by NTA (see FIG. 4). […]

[2] = Freeze-drying apple exosomes using trehalose, LMW HA and their combination (TEM, NTA); assay type: physicochemical; conditions: rehydrated after freeze-drying, FIG. 5
Method: For TEM imaging, exosomes are fixed with 4.0% paraformaldehyde (PFA) in sodiumphosphate buffer and stained with 2% neutral uranyl acetate with embedding in uranyl acetate and methylcellulose mixture. Exosomes are viewed with transmission EM using Jeol JEM-1400 (Jeol Ltd., Tokyo, Japan) operating at 80 kV. Images are taken with Gatan Orius SC 1000B CCD-camera (Gatan Inc., USA) with 4008×2672 px image size and no binning.
Particle number and size distribution of the exosome is measured by NTA instrument LM14C (NanoSight LTD., London, UK) equipped with blue (404 nm, 70 mW) laser and sCMOS camera. Data are analysed with Nanosight software v3.0, using threshold 5 and gain 10.
To test the preservation of exosome functionality and integrity during the lyophilization process, two cryoprotectants (trehalose and LMW HA) in four different cryoprotectant combinations were used, namely: 50 mM trehalose, 100 mM trehalose, 5% LMW HA, and 50 mM trehalose +2.5% LMW HA. Lyophilization solutions were prepared using PBS. The overall osmolality of the lyophilization solutions was maintained at 290 mOsm/kg. For the freeze-drying experiments, isolated exosomes (10^10-10^11 particle/ml) were suspended in cryoprotectant solution. 5 ml of each sample was prepared. Each solution was divided into 3 polypropylene microcentrifuge tubes, each tube containing 1.2 ml of lyophilization solution supplied with exosomes. […]

human dermal fibroblasts [3] = assay: Collagen production, human collagen type I ELISA kit; assay type: cell-based; conditions: incubated 48 h, FIG. 6(c)
Method: Also, collagen production was measured using a human collagen type I ELIZA kit. Human dermal fibroblasts were incubated with the exosome samples for 48 h. 100 μl of cell culture media was collected from each sample and incubated with 100 μl of biotinylated detection antibody for 1 h at 37° C. Samples were then washed and incubated with 100 μl of horseradish peroxidase (HRP) conjugate working solution. Stop solution was added and optical density was measured at 450 nm with a Plate Reader.

human dermal fibroblasts [4] = assay: Wound scratch assay (relative wound density); assay type: cell-based; conditions: FIG. 6(a)
Method: Human dermal fibroblasts are seeded in 96 well plates at 2.4×10^4 cells/well. A cell-free area is then created in a confluent monolayer by physical exclusion through mechanical damage using a […] pipette tip. The culture medium is replaced immediately with a fresh 0.5% EV-free serum-supplemented culture medium containing 100 μg/ml of each exosome preparation tested. Three positions per scratch are imaged for 48 hours. Relative wound density is analysed by measuring the wound area over the healing time. All scratch assays are performed in triplicate.

human dermal fibroblasts [5] = assay: MTT assay (fibroblast proliferation); assay type: cell-based; conditions: FIG. 6(b)
Method: The effect of the exosomes on the proliferation of human dermal fibroblasts was measured by a 3-[4.5-Dimethylthiazol-2-yl]-2.5-diphenyltetrazolium bromide ([…]; Life technologies) assay. Briefly, human dermal fibroblast cells are seeded in 96-well plates at an initial density of 5×10^3 cells/well for 24 h and then are treated with 100 μg/mL of exosomes for 48 hours. Cells are incubated with 0.5 mg/mL of MTT for 3-5 h and then 100 μl DMSO is added to each well and the optical density is measured at 540 nm.

Compound	exosome concentration, morphology, aggregation after lyophilization (result in words) [1]	aggregation, size and concentration of lyophilized apple exosomes (result in words) [2]	collagen production by fibroblasts (result in words) (human dermal fibroblasts [3])	relative wound density, lyophilised versus non-lyophilised exosomes (result in words) (human dermal fibroblasts [4])	fibroblast proliferation, lyophilised versus non-lyophilised exosomes (result in words) (human dermal fibroblasts [5])
OC[C@H]1O[C@H](O[C@H]2O[C@H](CO)[C@@H](O)[C@H](O)[C@H]2O)[C@H](O)[C@@H](O)[C@@H]1O [trehalose, Trehalose]	best results as a single component cryoprotectant	no exosome aggregation	–	–	–
Hyaluronic acid (LMW) [hyaluronic acid at low-molecular-weight]	–	–	positive role	positive role	positive role
